The source of these data is patent US20250049840A1, “COMPOSITIONS COMPRISING A CHEMOKINE RECEPTOR PATHWAY INHIBITOR” (DIMERIX BIOSCIENCE PTY LTD, priority 2022, published 2025).

One series relates to monocytes. The settings on record: Yokochi (2001); Yamada (2004); cited from earlier work.
Another series has as its target MCP-1 (Homo sapiens, UniProt P13500). The settings on record: Yokochi (2001); Yamada (2004); cited from earlier work.
Series [1] is described as follows: In Use stability study: repagermanium IR capsules reconstituted in water in a medical pot, with or without nasogastric tube (assay, appearance, pH). It counts as physicochemical. The note with it: reconstituted in 15 ml water in a medical pot, up to 3 h (180 minutes). As to the method:
An In Use stability study was performed to determine the reconstitution and dosage information for administration of repagermanium IR capsules via nasogastric feeding tube. The objective of the study was to: • 1. measure the stability of the repagermanium drug product composition once reconstituted in water for administration via a gastric tube, • 2. determine if there is any residual repagermanium remaining in the medicine pot after the first 15 mL solution has been removed, and • 3. identify if additional flushing of the nasogastric tube will be required to deliver the correct dose of repagermanium. There were 6 experiments in total. Each experiment was performed in duplicate (except for micro tests). [table]

“Also recorded” adds a separate entry of the source.

MCP-1, sequence (P13500 24-99, species assumed): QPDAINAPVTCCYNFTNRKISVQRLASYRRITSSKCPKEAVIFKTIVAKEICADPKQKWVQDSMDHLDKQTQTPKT

For the compound `O=C(O)C[CH2][Ge](=[O])[O][Ge](=[O])[CH2]CC(=O)O` [Propagermanium, 3-[(2-carboxyethyl-oxogermyl)oxy-oxogermyl] propanoic acid], in the series on monocytes, the “inhibition of in vitro chemotactic migration of monocytes by MCP-1” value is listed as “specifically inhibit in vitro chemotactic migration of monocytes by MCP-1; also recorded: inhibits in-vitro chemotactic migration of monocytes by MCP-1”. Further, on MCP-1, the “inhibition of MCP-1 binding” value was “does not inhibit MCP-1 binding”.
In the case of `O=C(O)C[CH2][Ge](=[O])[O][Ge](=[O])[CH2]CC(=O)O` [repagermanium, 3-[(2-carboxyethyl-oxogermyl)oxy-oxogermyl] propanoic acid], the “chemical and microbiological stability after reconstitution” value in series [1] was “chemically and microbiologically stable”.
